Reference: US11412737B2, “Mixtures of beflubutamid or optically enriched forms thereof with a second herbicide” (FMC Corporation, priority 2016, dated 2022)

Key:
Palmer amaranth (AMAPA) = experiment: post-emergence test, weed control; type: in vivo, Amaranthus palmeri; settings: post-emergent, 28 DAT, COC 1%, rate g ai/ha by row: r5 94, r6 125, r7 250, r8 1.25, r9 2.5, r10 5, r11 94+1.25, r13 125+1.25, r15 94+2.5, r17 125+2.5, r19 94+5, r21 125+5
Method: (§1) Test compositions containing the test compounds were diluted with water to provide the appropriate test rate concentrations.
(§2) For post-emergence testing, seeds of each species for each rate of application of each herbicide solution were planted in 7.5 cm×7.5 cm plastic pots filled with potting soil. The seeds were germinated and the resulting plants were allowed to grow in a greenhouse until they reached a growth stage, such as height, suitable for testing. […] Pots of post-emergent treated plants were returned to the greenhouse and not watered for 24 hours after treatment. Thereafter they were regularly watered and fertilized for the duration of the test.
(§3) The control of weeds was evaluated in each experimental test at 21 for wheat and 28 days after treatment (DAT) for all species. […] The rating system is as follows in Table 1.

Common chickweed (STEME) = experiment: pre-emergence test, weed control; type: in vivo, Stellaria media; settings: pre-emergent, 28 DAT; BFL at 187.5 g, PYX at 90 g, combination of both
Method: as §1
(§4) For pre-emergence testing, four disposable fiber flats (6 inch by 10 inch) for each rate of application of each herbicide solution were filled with top soil, to which seeds of each species were planted in furrows made by a template pressed on the top of the soil. The furrows were covered with soil after planting the seed and were watered well before application of the test compounds.
Fiber flats designated for treatment were placed in a spray chamber having a static platform and a movable sprayer and the height of the spray nozzle was 10.5 inches above the soil level. Once the sprayer was calibrated using water for spray volume of 30 gallons per acre, flats were sprayed with sprayer at a speed to receive a coverage equivalent of 30 gallons per acre. […]
The control of weeds was evaluated in each experimental test at 21 for wheat and 28 days after treatment (DAT) for all species. Data were analyzed using Minitab software at 95% confidence interval. […] Percent control was determined by a method similar to the 0 to 100 rating system disclosed in “Research Methods in Weed Science,” 2nd ed., B. Truelove, Ed.; Southern Weed Science Society; Auburn University, Auburn, Ala., 1977. […]

[1] = test system: Littleseed canarygrass (PHAMI); experiment: post-emergence test, weed control; type: in vivo, Phalaris minor; settings: post-emergent, 28 DAT, height 7-8 cm, rate g ai/ha by row: r25 94, r26 125, r27 188, r28 125, r29 250, r30 94+125, r31 125+125, r32 188+125, r33 94+250, r34 125+250, r35 188+250
Method: as §1
For post-emergence testing, seeds of each species for each rate of application of each herbicide solution were planted in 7.5 cm×7.5 cm plastic pots filled with potting soil. The seeds were germinated and the resulting plants were allowed to grow in a greenhouse until they reached a growth stage, such as height, suitable for testing. Treatments were applied using compressed air in a track spray chamber at 30 gallons/acre (280 L/ha) using a TeeJet 8001E nozzle at 40 psi (2.76 bars). Pots of post-emergent treated plants were returned to the greenhouse and not watered for 24 hours after treatment. Thereafter they were regularly watered and fertilized for the duration of the test.
(§5) The control of weeds was evaluated in each experimental test at 21 for wheat and 28 days after treatment (DAT) for all species. Data were analyzed using Minitab software at 95% confidence interval. The results, shown as an average of the replications, were compared with results observed in untreated control flats in the same tests. Percent control was determined by a method similar to the 0 to 100 rating system disclosed in “Research Methods in Weed Science,” 2nd ed., B. Truelove, Ed.; Southern Weed Science Society; Auburn University, Auburn, Ala., 1977. The rating system is as follows in Table 1.

Jimsonweed (DATST) = experiment: pre-emergence test, weed control; type: in vivo, Datura stramonium; settings: pre-emergent, 28 DAT, combination of both
Method: as §1, §4
Fiber flats designated for treatment were placed in a spray chamber having a static platform and a movable sprayer and the height of the spray nozzle was 10.5 inches above the soil level. Once the sprayer was calibrated using water for spray volume of 30 gallons per acre, flats were sprayed with sprayer at a speed to receive a coverage equivalent of 30 gallons per acre. The application rates are those shown in the Tables below for the individual herbicidal solutions and the herbicide compositions of this invention. The pre-emergence flats were immediately placed in the greenhouse and watered lightly after treatment. Thereafter they were regularly watered and fertilized for the duration of the test.
as §5

redroot pigweed (AMARE) = experiment: post-emergence test, weed control; type: in vivo; settings: post-emergent, 28 DAT, COC 1%, rate g ai/ha by row: r5 94, r6 125, r7 250, r8 1.25, r9 2.5, r10 5, r11 94+1.25, r13 125+1.25, r15 94+2.5, r17 125+2.5, r19 94+5, r21 125+5
Method: as §1, §2, §3

Rice flatsedge (CYPIR) = experiment: post-emergence test, weed control; type: in vivo; settings: post-emergent, 28 DAT, height 1-2 cm, rate g ai/ha by row: r25 94, r26 125, r27 188, r28 125, r29 250, r30 94+125, r31 125+125, r32 188+125, r33 94+250, r34 125+250, r35 188+250
Large crabgrass (DIGSA) = experiment: post-emergence test, weed control; type: in vivo; settings: post-emergent, 28 DAT; for control of large crabgrass (DIGSA): BFL at 188 g/ha, DCI at 125 g/ha, combination of both; for percentage of weed control, DIGSA: height 3-5 cm, rate g ai/ha by row: r25 94, r26 125, r27 188, r28 125, r29 250, r30 94+125, r31 125+125, r32 188+125, r33 94+250, r34 125+250, r35 188+250
Cheat grass (BROSE) = experiment: post-emergence test, weed control; type: in vivo; settings: post-emergent, 28 DAT, height 7 cm, rate g ai/ha by row: r7 94, r8 125, r9 188, r10 125, r11 250, r12 94+125, r13 125+125, r14 188+125, r15 94+250, r16 125+250, r17 188+250
Common ragweed (AMBEL) = experiment: post-emergence test, weed control; type: in vivo; settings: post-emergent, 28 DAT, height 3-4 cm, rate g ai/ha by row: r7 94, r8 125, r9 188, r10 125, r11 250, r12 94+125, r13 125+125, r14 188+125, r15 94+250, r16 125+250, r17 188+250
Barley (B) = experiment: post-emergence test, crop injury; type: in vivo; settings: post-emergent, 28 DAT, BFL racemic, height at application 14 cm; rate g ai/ha by row: r7 94, r8 125, r9 188, r10 125, r11 250, r12 94+125, r13 125+125, r14 188+125, r15 94+250, r16 125+250, r17 188+250
Method: as §1, §2, §3

For CCC(Oc1ccc(F)c(C(F)(F)F)c1)C(=O)NCc1ccccc1 (racemic) [BFL, 2-[4-fluoro-3-(trifluoromethyl)phenoxy]-N-(phenylmethyl)butanamide], the “percentage of weed control, Palmer amaranth AMAPA” value (“percentage … Palmer amaranth AMAPA” below) (Palmer amaranth (AMAPA); BFL at 94 g ai/ha) was 46%, the “percentage … Palmer amaranth AMAPA” value (Palmer amaranth (AMAPA); BFL at 125 g ai/ha) was 48% and the “percentage … Palmer amaranth AMAPA” value (Palmer amaranth (AMAPA); BFL at 250 g ai/ha) was 53%. The “control of common chickweed” value (Common chickweed (STEME)) was 6%, the “percentage of weed control, PHAMI” value ([1]; 94 g ai/ha) was 0% and the “percentage of weed control, PHAMI” value ([1]; 188 g ai/ha) was 1%. The control of jimsonweed (Jimsonweed (DATST); BFL at 62.5 g, PTX at 90 g) was 4%, the control of jimsonweed (Jimsonweed (DATST); BFL at 187.5 g, PYX at 90 g) was 30% and the “percentage of weed control, Redroot pigweed AMARE” value (“percentage … Redroot pigweed AMARE” below) (redroot pigweed (AMARE); BFL at 94 g ai/ha) was 61%. For the same compound, the “percentage … Redroot pigweed AMARE” value (redroot pigweed (AMARE); BFL at 125 g ai/ha) was 60%, the “percentage … Redroot pigweed AMARE” value (redroot pigweed (AMARE); BFL at 250 g ai/ha) was 86% and the “percentage of weed control, CYPIR” value (Rice flatsedge (CYPIR); 94 g ai/ha) was 0%. The “percentage of weed control, CYPIR” value (Rice flatsedge (CYPIR); 188 g ai/ha) was 4%, the “control of large crabgrass (DIGSA)” value (Large crabgrass (DIGSA)) was 19% and the “percentage of weed control, BROSE” value (Cheat grass (BROSE); 94 g ai/ha) was 0%. The “percentage of weed control, BROSE” value (Cheat grass (BROSE); 188 g ai/ha) was 6%, the “percentage of weed control, AMBEL” value (Common ragweed (AMBEL); 94 g ai/ha) was 5% and the “percentage of weed control, AMBEL” value (Common ragweed (AMBEL); 125 g ai/ha) was 6%. For the same compound, the “percentage of weed control, AMBEL” value (Common ragweed (AMBEL); 188 g ai/ha) was 12% and the “percentage of crop injury, B” value (Barley (B)) was 1%.
For CC1(C)CON(Cc2ccc(Cl)cc2Cl)C1=O [DCI, 2-(2,4-dichlorophenyl)methyl-4,4-dimethyl-3-isoxazolidinone], the “percentage of weed control, PHAMI” value ([1]; 125 g ai/ha) was 4%, the “percentage of weed control, PHAMI” value ([1]; 250 g ai/ha) was 2% and the “percentage of weed control, CYPIR” value (Rice flatsedge (CYPIR)) was 0%. For the same compound, the “percentage of weed control, DIGSA” value (Large crabgrass (DIGSA); 125 g ai/ha) was 17%, the “percentage of weed control, DIGSA” value (Large crabgrass (DIGSA); 250 g ai/ha) was 22% and the “control of large crabgrass (DIGSA)” value (Large crabgrass (DIGSA)) was 17%. The “percentage of weed control, BROSE” value (Cheat grass (BROSE)) was 0%, the “percentage of weed control, AMBEL” value (Common ragweed (AMBEL); 125 g ai/ha) was 73% and the “percentage of weed control, AMBEL” value (Common ragweed (AMBEL); 250 g ai/ha) was 77%.
